According to ChEMBL document CHEMBL1133412, “Rational design, synthesis and structure-activity relationships of antitumor (E)-2-benzylidene-1-tetralones and (E)-2-benzylidene-1-indanones” (Bioorg Med Chem Lett, 2000):
pIC50: −log10 of the molar value. Activity calls are given as the source filed them. No cut-off for these calls is given here.

What was measured:
Type in all cases: functional, cell-based
[1] = system: MOLT-4; experiment: Cytotoxicity was evaluated against Molt-4 tumor cell lines; Inactive; settings: Homo sapiens
[2] = system: HL-60; experiment: Cytotoxicity was evaluated against HL-60 tumor cell lines; Inactive; settings: Homo sapiens
[3] = system: NCI-H292; experiment: Cytotoxicity was evaluated against H292 tumor cell lines; Inactive; settings: Homo sapiens
[4] = system: NIH3T3; experiment: Cytotoxicity was evaluated against NIH3T3 tumor cell lines; Inactive; settings: Mus musculus
[5] = system: NCI-H596; experiment: Cytotoxicity was evaluated against H596 tumor cell lines; Inactive; settings: Homo sapiens
[6] = system: K562; experiment: Cytotoxicity was evaluated against K562 tumor cell lines; Inactive; settings: Homo sapiens
[7] = system: L1210; experiment: Cytotoxicity was evaluated against L1210 tumor cell lines; Inactive; settings: Mus musculus
[8] = system: CCRF-CEM; experiment: Cytotoxicity was evaluated against CEM tumor cell lines; Inactive; settings: Homo sapiens
[9] = system: A549; experiment: Cytotoxicity was evaluated against A549 tumor cell lines; Inactive; settings: Homo sapiens
[10] = system: Jurkat; experiment: In vitro test for antitumor activity against human Jurkat cell line using a formazan dye (MTT) conversion assay.
[11] = system: WIL2; experiment: Cytotoxicity was evaluated against WIL2 tumor cell lines; Inactive; settings: Homo sapiens
[12] = system: MCF7; experiment: Cytotoxicity was evaluated against MCF-7 tumor cell lines; Inactive; settings: Homo sapiens
[13] = system: B16; experiment: Cytotoxicity was evaluated against B16 tumor cell lines; Inactive; settings: Mus musculus
[14] = system: WI-38; experiment: Cytotoxicity was evaluated against WI38 tumor cell lines; Inactive; settings: Homo sapiens

pIC50 [10] | SMILES | Cytotoxicity [1] | Cytotoxicity [2] | Cytotoxicity [3] | Cytotoxicity [4] | Cytotoxicity [5] | Cytotoxicity [6] | Cytotoxicity [7] | Cytotoxicity [8] | Cytotoxicity [9] | Cytotoxicity [11] | Cytotoxicity [12] | Cytotoxicity [13] | Cytotoxicity [14]
< 4.30 | COc1ccc2c(c1)C/C(=C\c1cc(C)c(O)c(C)c1)C2=O | inactive | inactive | inactive | inactive | inactive | inactive | inactive | inactive | inactive | inactive | inactive | inactive | inactive
< 4.30 | COc1cc2c(c([N+](=O)[O-])c1OC)C(=O)/C(=C/c1cc(C)c(O)c(C)c1)C2 | inactive | inactive | inactive | inactive | inactive | inactive | inactive | inactive | inactive | inactive | inactive | inactive | inactive
< 4.30 | COc1cc2c(cc1OC)C(=O)/C(=C/c1ccc(O)c(C(=O)O)c1)CC2 | inactive | inactive | inactive | inactive | inactive | inactive | inactive | inactive | inactive | inactive | inactive | inactive | inactive
< 4.30 | Cc1cc(/C=C2\Cc3cc4c(cc3C2=O)OCO4)cc(C)c1O | inactive | inactive | inactive | inactive | inactive | inactive | inactive | inactive | inactive | inactive | inactive | inactive | inactive
< 4.30 | COc1ccc(/C=C2\CCc3cc(OC)c(OC)cc3C2=O)c(OC)c1 | inactive | inactive | inactive | inactive | inactive | inactive | inactive | inactive | inactive | inactive | inactive | inactive | inactive
< 4.30 | COc1ccc(/C=C2\CCc3cc(OC)c(OC)cc3C2=O)cc1 | inactive | inactive | inactive | inactive | inactive | inactive | inactive | inactive | inactive | inactive | inactive | inactive | inactive
< 4.30 | COc1ccc(/C=C2\CCc3cc(OC)c(OC)cc3C2=O)cc1OC | inactive | inactive | inactive | inactive | inactive | inactive | inactive | inactive | inactive | inactive | inactive | inactive | inactive
